In one series the test system is C32 cells. The series can be described thus: Predicted Ctox from Tox-Panel. As to conditions: C32, 24 HR. In kind it is cell-based, human. The protocol: Studies such as these indicate that a preferred concentration for setting Ctox is the highest concentration at which there is no observed effect on any of the indicators being measured in the cluster analysis, especially a 24-hour cluster analysis. […] It will be apparent that 24 hour assays are more time-effective, and consequently, the 24 hour NOEL/Ctox represents a preferred data point to select as Ctox in a CATS assay. It will also be apparent that, with further time studies, it may be possible to select an equally suitable Ctox at other CATS assay time points (e.g., between 24 and 72 hours, or less than 24 hours).
In certain embodiments, the predicting comprises performing concentration response analyses of measurements from at least three separate assays that are employed in the cluster analysis. For example, in the cell health cluster, such predicting will involve monitoring the concentration response effect of the compound on a first health indicator which monitors cellular replication, a second cell health indicator which monitors mitochondrial function, and a third cell health indicator which monitors membrane integrity. Of course, it is understood that fourth, fifth, sixth or more cell health indicators also may be employed. From these concentration response analyses, the highest concentration of the chemical compound at which a measurable toxic effect of the chemical compound is not observable, i.e. NOEL, is determined and the Ctox is identified as the concentration that correlates to the NOEL. In choosing the concentrations of the compound for analysis, one of skill in the art should devise a dose response regimen which is selected to provide an indication of cell health at concentrations of at least two concentration values higher than the Ctox concentration.
The results are summarized in Tables 14-17 and in FIGS. 83-102. Table 14 compares the test compound TC50 values for each assay endpoint. Test compounds are rank-ordered from most to least toxic based on their TC50 values and overall shape of the response curves. The Ctox value, or estimated sustained blood concentration where toxicity would first be expected to occur in a rat 14-day repeated dose study, is also included in this table. Negative and positive controls are included with every run. Assay response is continually monitored to assure reliable results. […] Table 15 summarizes oxidative stress and apoptosis data, Table 16 summarizes the solubility data, and Table 17 provides information on interaction with PgP.
The Ctox value was developed using 24 hr in vitro (H4IIE) toxicity data and was validated by retrospectively evaluating compounds across different classes of drugs in 14-day rat studies in which compounds were administered on a daily basis and pharmacokinetic data was available. […] Thus, Ctox values are only determined for the 24 hr in vitro results. In this example, Ctox values could not be estimated due to low toxicity in most of the cell lines.

For another series, the system named is H4IIE cells. As to the kind of experiment: Cell number (propidium iodide). Conditions: rat, 24 h. It is filed as cell-based, rat. In outline:
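Rat hepatoma H4IIE cells exposed to compound in complete medium, then lysed with Triton X-100 containing propidium iodide; fluorescence read at 540/610 nm. Blank-subtracted RFU expressed as percent of untreated control cells, means of n=3-7.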

As a reminder, the CC50 is the concentration that lowers cell viability or growth by half. Higher therefore signals lower toxicity to the cells.

As for `CC[C@@]1(O)C(=O)OCc2c1cc1n(c2=O)Cc2cc3ccccc3nc2-1` [CAMPTOTHECIN, Camptothecin], the “Predicted Ctox” value in the series with C32 cells is 0.1 µM. On to `COc1cccc2c1C(=O)c1c(O)c3c(c(O)c1C2=O)C[C@@](O)(C(=O)CO)C[C@@H]3O[C@H]1C[C@H](N)[C@H](O)[C@H](C)O1` [ADRIAMYCIN, Adriamycin], for which the CC50 in the series on H4IIE cells came out at 9 µM.

Source of the values: patent US7615361B2, “Toxicity screening methods” (Ceetox, Inc., priority 2006, dated 2009).
